From patent publication US20230101903A1, “COMPOUNDS USEFUL AS ANTI-VIRAL AGENTS” (NATURE CRETE PHARMACEUTICALS PC, priority 2020, published 2023)
Converted amounts (≈) assume the structure as drawn. Like-named read-outs stand apart in the source and are kept apart here.

Columns and labels:
Influenza A/FM/1/47/H1N1 [1] = experiment: virus titer of supernatants of infected MDCK-II cells (plaque titration); assay type: cell-based, human Influenza A/FM/1/47/H1N1 strain
Method: (§1) All assays in Examples 1, 2, 4 and 5 were performed with the human Influenza A/FM/1/47/H1N1 strain, and canine MDCK-II cells, whilst in Example 7 VERO E6 monkey kidney cells were used.
MDCK-II cells in Minimal Essential Medium (MEM) were seeded into a 6-well plate and incubated at 37° C. The following day, the cells were infected with influenza A/FM/1/47/H1N1 and incubated at 37° C. for 2 hours, followed by washing extensively with serum free MEM.
The infected cells were then cultured in media supplemented with varying concentrations of Compound A at 37° C. for 24 to 48 hours. Supernatants of the infected cells, containing the newly synthesised virions, were harvested and titrated in MDCK-II cells. Upon plaque formation, the infected cells were washed with phosphate-buffered saline (PBS) and fixed with paraformaldehyde. Cell monolayers were stained with crystal violet and observed microscopically.

[2] = tested on: influenza virus A/FM/1/47/H1N1; experiment: Real-Time PCR of newly synthesized viral RNA (M1 genome copies) in infected MDCK-II cells; assay type: cell-based, human Influenza A/FM/1/47/H1N1 strain; conditions: 12 hours
Method: as §1
MDCK-II cells were plated in 12-well plates. After overnight incubation, the cells were washed with phosphate-buffer saline (PBS) and infected with influenza virus A/FM/1/47/H1N1) for 2 hours at 37° C.
The inoculum was then removed and the cells were incubated with MEM containing various concentrations of Compound A for 12 hours.

[3] = tested on: SARS-CoV-2 (isolate 30-287); experiment: microbe, parasite or virus in culture; assay type: cell-based; conditions: Severe acute respiratory syndrome coronavirus 2, Vero C1008, VERO E6 cells, 96 hours, read-out: IC50, synthesis of new viral RNA
Influenza A/FM/1/47/H1N1 [4] = experiment: plaque-reduction assay in MDCK-II cells; assay type: cell-based, human Influenza A/FM/1/47/H1N1 strain; conditions: 72 hours, all concentrations above 200 ng/mL
Method: as §1
The antiviral activity of p-cymene in Influenza A/FM/1/47/H1N1 was assayed in a plaque-reduction assay (expressed in forming plaques).
Canine MDCK-II cells were seeded into 6-well plastic plates and cultured at 37° C. under 5% CO2 for 24 hours. The MDCK-II cells were then inoculated with Influenza A/FM/1/47/H1N1 for 2 hours, after which the infected cells were washed and cultured for 72 hours at 37° C. under 5% CO2 in the presence of different concentrations of p-cymene in Minimum Essential Medium (MEM). Ribavirin was used as a control at a concentration of 25 μM.
After incubation, the virus-infected cells were observed microscopically. After 3 days of infection, cells were fixed with paraformaldehyde and cell monolayers were stained with crystal violet.

[5] = tested on: influenza virus A/FM/1/47; experiment: intracellular viral nucleoprotein (NP) by Western Blot Analysis in infected cells; assay type: cell-based, human Influenza A/FM/1/47/H1N1 strain; conditions: p-cymene 200 ng/mL; 7, 10 and 24 hours after infection
Method: as §1
Intracellular viral nucleoprotein (NP) concentration was quantified by Western Blot Analysis at 7, 10 and 24 hours after infection.
A six-well culture plate was seeded with cells, which were then incubated at 37° C. for 24 hours under 5% CO2. The cells were infected with influenza virus A/FM/1/47 at 37° C. for 1 hour and then p-cymene was added (200 ng/mL). The cells were harvested at the indicated time periods (7h, 10h and 24h). The lysates were incubated for 20 min on ice and then centrifuged at 14,000×g for 10 min at 4° C. The supernatants were collected and equal amounts of proteins were resolved by sodium dodecyl sulfate (10%) polyacrylamide gel electrophoresis.

[6] = pre-incubation (2 hours before infection)

| SMILES | virus titer (Influenza A/FM/1/47/H1N1 [1]; MDCK-II cells, 24 and 48 hpi, varying concentrations) | anti-viral action (conclusion of the in vitro studies) (Influenza A/FM/1/47/H1N1 [1]; compared with ribavirin) | synthesis of new viral RNA ([2]; all concentrations tested) | viral M1 genome copy numbers ([2]; nuclear RNA) | IC50 ([3]; co-incubation) [µg/mL] | IC50 [3, 6] [µg/mL] | plaque formation (number of forming plaques) (Influenza A/FM/1/47/H1N1 [4]) | amount of intracellular viral nucleoprotein (NP) [5] |
| --- | --- | --- | --- | --- | --- | --- | --- | --- |
| CCCOCC(CC)c1ccc(C)cc1 (stereo not shown) [Compound A] | significantly decreased virus titer | significant anti-viral action, comparable with that of ribavirin | inhibits | decreased | 38 | 9 (≈ 43.6 µM) | – | – |
| Cc1ccc(C(C)C)cc1 [p-cymene] | – | – | – | – | 83 | 59 (≈ 440 µM) | significant, dose-dependent decrease of plaque formation | significantly decreased |
